In patent US20010016605A1, “Use of a phenylurea derivative for controlling crown and root rot in beet” (priority 2000, published 2001) one finds Efficacy in % data, which are given here for 3 compounds.

The assay deals with Rhizoctonia solani AG 2-2. The experiment in a line: Inhibition of the growth of Rhizoctonia solani AG 2-2 on nutrient medium / protective. The assay is classed as cell-based. The settings on record: 0% = untreated control, 100% = complete inhibition of fungal growth, evaluation after 2 to 14 days. As to the method:
Inhibition of the growth of Rhizoctonia solani AG 2-2 (anastomosis group 2-2)/protective
The substances are tested on suitable nutrient media for their activity against Rhizoctonia solani AG 2-2. To this end, the stated amount of active compound is in each case added to and intensively mixed with the stated amount of nutrient medium. The mixture in question is transferred into a culture vessel, inoculated with Rhizoctonia solani AG 2-2 and incubated at a suitable temperature. At certain intervals, the growth of the microorganism is assessed.
A nutrient medium of the following composition is used:
These components are dissolved in 1000 ml of distilled water and autoclaved at 121° C. for 30 minutes. The active compound at the stated concentration is then mixed with the nutrient medium. However, in all cases solvent and nutrient medium are present in the following weight ratio:
These mixtures are poured into Petri dishes having a diameter of 9 cm and a volume of 10 ml. Once the nutrient substrate has cooled and solidified, it is inoculated in the centre of the Petri dish with an inoculation piece having a diameter of 0.5 cm.
Evaluation is carried out after 2 to 14 days—depending on the rate of growth of the microorganism. The effect on the development of the culture is determined by comparing the individual test samples. 0% means an efficacy which corresponds to that of the untreated test variant. In contrast, an efficacy of 100% means complete inhibition of fungal growth.

[1] abbreviates: active compound application rate 0.1 ppm in nutrient medium.
The mark [2] stands for this setting: active compound application rate 1 ppm in nutrient medium.
Setting [3] is: active compound application rate 10 ppm in nutrient medium.
Where [4] appears, read: active compound application rate 100 ppm in nutrient medium.

SMILES strings stand for the structures.

The compound `Cc1cc(O)no1` [hymexazol] yielded an Efficacy in % under setting [1] of 7%, an Efficacy in % under setting [2] of 5%, an Efficacy in % under setting [3] of 8% and an Efficacy in % under setting [4] of 35%.

`O=C(Nc1ccccc1)N(Cc1ccc(Cl)cc1)C1CCCC1` [pencycuron, N-4-chloro-benzyl-N-cyclopentyl-N′-phenylurea]: the Efficacy in % was found to be 70% under setting [1], 98% under setting [2], 100% under setting [3] and 100% under setting [4].

As to `CO/C=C(/C(=O)OC)c1ccccc1Oc1cc(Oc2ccccc2C#N)ncn1` [azoxystrobin], the Efficacy in % turned out to be 45% under setting [1], 48% under setting [2], 59% under setting [3] and 64% under setting [4].
